Where “and” joins values, the source holds several entries; their conditions need not be identical. Equal entries are not always repeated. Where two headings read alike, the source gives them in different places.
What was measured:
IGF1R = biological target: T1, IGF1R (Homo sapiens, UniProt P08069); assay: IGF1R kinase assay; assay type: biochemical
T1 construct: 6×His- or GST-tagged kinase domain fragments of the corresponding RTKs expressed in baculovirus system; host or cells: baculovirus system
T1 sequence (P08069 999-1274 limits assumed): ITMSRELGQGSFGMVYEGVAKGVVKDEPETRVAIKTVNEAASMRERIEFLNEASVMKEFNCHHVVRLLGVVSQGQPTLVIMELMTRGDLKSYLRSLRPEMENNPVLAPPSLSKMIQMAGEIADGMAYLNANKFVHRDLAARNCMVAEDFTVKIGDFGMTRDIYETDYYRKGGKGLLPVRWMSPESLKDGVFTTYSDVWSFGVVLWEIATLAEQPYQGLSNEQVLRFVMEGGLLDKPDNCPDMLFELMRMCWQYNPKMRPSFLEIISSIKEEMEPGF
Outline: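 The AlphaScreen PT66 format of the NPM-ALK assay was applied with minor modifications to commercial recombinant His/GST-tagged kinase domains. Compound (0.078125–40 μM) was incubated 30 min at RT with 10 μM ATP and biotinylated poly-GT in Tris pH 7.5/MgCl2/MnCl2/DTT buffer, then beads 60 min. Read at 520–680 nm; IC50 and Ki derived.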

IRK = biological target: T2, IRK (Homo sapiens, UniProt P06213); assay: IRK (insulin receptor kinase) assay; assay type: biochemical; settings: Table 1; read-out: IRK IC50
T2 construct: 6×His- or GST-tagged kinase domain fragments of the corresponding RTKs expressed in baculovirus system; host or cells: baculovirus system
T2 sequence (P06213 1023-1298 limits assumed): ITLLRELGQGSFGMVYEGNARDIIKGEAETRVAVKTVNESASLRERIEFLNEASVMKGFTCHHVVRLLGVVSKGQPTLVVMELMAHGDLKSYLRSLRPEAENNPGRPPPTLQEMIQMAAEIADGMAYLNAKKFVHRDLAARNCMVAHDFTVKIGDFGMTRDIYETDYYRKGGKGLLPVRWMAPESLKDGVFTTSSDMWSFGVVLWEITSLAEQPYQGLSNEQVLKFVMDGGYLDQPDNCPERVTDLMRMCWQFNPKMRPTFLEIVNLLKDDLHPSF
Protocol: To determine inhibition of several tyrosine kinases, such as IGF1R, InsR, Alk, TrkA and Jak2, kinase assays are conducted using either Kinase-Glo (Promega) or AlphaScreen (PerkinElmer) kinase assay platforms. The Kinase-Glo Luminescent Kinase Assay is a homogeneous method for measuring kinase activity by determining the amount of ATP remaining after a kinase reaction. The luminescent signal is proportional to the amount of ATP and inversely proportional to the amount of kinase activity. Tyrosine kinase PT66 AlphaScreen Assay is a high-sensitivity homogeneous, anti-phosphotyrosine antibody-mediated luminescent proximity method measuring incorporation of phosphate in synthetic poly(Glu-Tyr) substrate. The kinase preparations used consist of purified recombinant, 6×His- or GST-tagged kinase domain fragments of the corresponding RTKs expressed in baculovirus system.
Compounds with a range of concentrations 40 μM, 20 μM, 10 μM, 5 μM, 2.5 μM, 1.25 μM, 0.625 μM, 0.3125 μM, 0.15625 μM and 0.078125 μM were incubated with NPM-ALK, which was produced in insect cells as a 6×HIS-tagged fusion protein and purified using nickel-charged resin chromatography, for 30 minutes at RT in the presence of 10 μM ATP and 7.0 ng biotinylated poly-GT. A 1:1 mixture of […] and donor beads was then added to the reaction and incubated for an additional 60 minutes at RT. The assay was conducted on a MultiPROBE liquid handling workstation (PerkinElmer) in a 384-well plate format with a total reaction volume of 40 μL per well. Working stocks of all compounds were dissolved in 100% DMSO and serial dilutions of the compounds were performed using kinase buffer (50 mM Tris-HCl (pH 7.5), 5 mM MgCl2, 5 mM MnCl2, 2 mM DTT (added freshly before use), 0.01% Tween-20) containing 5% DMSO. […] Data were collected as optical readings at 520-680 nm on a Fusion™ microplate analyzer (PerkinElmer), and IC50 and Ki values calculated using PRISM3.0 software (GraphPad Software, Inc., San Diego, Calif.). The same assay was also used with minor modifications to assess the IC50 and Ki values for selected compounds against five other tyrosine kinases (IRK, IGF1R, Flt3, Abl, Src), all of which were purchased from commercial vendors. PolyGT-Biotin was bought from CIS Biointernational Cat. #61GT0BLD; ATP—from Sigma Cat. # A7699; sodium orthovanadate—from Sigma Cat. #S-6508; phosphotyrosine (PT66) assay kit from PerkinElmer Cat. #6760602M; automated workstation tips (20 μL): PerkinElmer Cat. #6000657; and OptiPlate-384 (white)—from PerkinElmer Cat. #6007299.

TRKA = TRKA (Homo sapiens, UniProt P04629); assay: TRKA kinase assay; assay type: biochemical; design: 6×His- or GST-tagged kinase domain fragments of the corresponding RTKs expressed in baculovirus system; host or cells: baculovirus system; settings: Table 1; read-out: TRKA IC50
Chain of TRKA (P04629 510-781 limits assumed): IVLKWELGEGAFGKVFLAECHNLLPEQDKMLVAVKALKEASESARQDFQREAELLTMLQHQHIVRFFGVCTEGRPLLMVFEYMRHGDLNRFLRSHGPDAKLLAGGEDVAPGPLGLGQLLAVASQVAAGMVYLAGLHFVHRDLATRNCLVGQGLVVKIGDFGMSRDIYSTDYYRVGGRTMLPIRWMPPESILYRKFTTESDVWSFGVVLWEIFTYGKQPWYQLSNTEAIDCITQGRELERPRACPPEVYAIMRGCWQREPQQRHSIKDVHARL

ALK = ALK (Homo sapiens, UniProt Q9UM73); assay: ALK kinase assay (Kinase-Glo / AlphaScreen, purified NPM-ALK); assay type: biochemical; design: fused to the complete intracytoplasmic portion of ALK containing the functional tyrosine kinase domain; 6xHis; made in house; host or cells: insect cells; the other entry of the earlier key: NPM1 (P06748, Nucleophosmin)
Chain of ALK (Q9UM73 with tags, fused parts or gaps): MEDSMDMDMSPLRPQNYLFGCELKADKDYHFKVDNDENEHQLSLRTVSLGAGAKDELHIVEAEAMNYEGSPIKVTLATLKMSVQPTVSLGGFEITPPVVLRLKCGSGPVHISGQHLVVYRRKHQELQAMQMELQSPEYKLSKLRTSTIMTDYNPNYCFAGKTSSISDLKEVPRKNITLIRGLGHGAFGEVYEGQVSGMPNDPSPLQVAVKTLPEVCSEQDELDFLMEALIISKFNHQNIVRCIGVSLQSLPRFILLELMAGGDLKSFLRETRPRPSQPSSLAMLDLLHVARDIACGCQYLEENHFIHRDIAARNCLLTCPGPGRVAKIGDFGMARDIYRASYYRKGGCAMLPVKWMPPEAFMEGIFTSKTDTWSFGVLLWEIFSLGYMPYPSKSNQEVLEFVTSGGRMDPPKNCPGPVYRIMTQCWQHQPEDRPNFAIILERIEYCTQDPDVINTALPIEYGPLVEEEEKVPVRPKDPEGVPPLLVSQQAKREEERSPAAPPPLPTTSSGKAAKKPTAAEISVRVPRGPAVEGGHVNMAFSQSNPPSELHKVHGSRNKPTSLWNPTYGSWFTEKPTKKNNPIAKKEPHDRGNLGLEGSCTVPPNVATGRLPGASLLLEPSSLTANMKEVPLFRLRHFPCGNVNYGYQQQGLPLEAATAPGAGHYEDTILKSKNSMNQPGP

JB6 = assay: Cell proliferation inhibition, ALCL line JB6; assay type: cell-based; settings: Table 2, cell line, read-out: IC50 ALCL (ALK) JB6
From the text: (§1) Cell proliferation inhibition assays were run for compound (II) with the five target NPM-ALK-dependent ALCL cell lines (Karpas 299, SuDHL-1, JB6, SupM2, UConn) and 12 unrelated cell lines (HEK293, CHO-K1, MCF7, HepG2, H292, H520, H1581, H596, H522, CHA-GO-K1, UMC-11, SK-MES1). […] The pronounced target cell-killing effect is also observed (molecular mechanisms to be determined).

Karpas299 = assay: Cell proliferation inhibition, ALCL line Karpas299; assay type: cell-based; settings: Homo sapiens, KARPAS-299; Table 2, cell line; read-out: IC50 ALCL (ALK) Karpas299
From the text: The IL-3-dependent lymphoid cell line BaF3 or BaF3 rendered IL-3-independent by engineered expression of NPM-ALK were used in parallel to test each candidate inhibitor. Control wells contained DMSO solvent without test compound. Specific inhibition of ALK signaling is indicated in the assay by impairment of NPM-ALK-expressing BaF3 cell growth without alterations in the growth of parental BaF3. This colorimetric assay of cell proliferation and viability is based upon reduction of the yellow monotetrazolium salt XTT to a water-soluble orange formazan dye, a reaction catalyzed by mitochondrial dehydrogenases in living cells only (Cell Proliferation Kit II, Cat. #1 465 015, Roche Biochemicals). In addition to testing compounds for their ability to impair the growth of BaF3 cells engineered to express NPM-ALK, the NPM-ALK-positive human lymphoma cell line Karpas-299 (Deutsche Sammlung von Mikroorganismen and Zellkulturen GmbH (DSMZ) no. ACC 31), the human BCR-ABL-positive chronic myeloid leukemia cell line K562 (American Type Culture Collection (ATCC) no. CCL-243), and the human T-cell leukemia line Jurkat (DSMZ no. ACC 282) were tested in these assays.
Each compound stock in 100% DMSO was first diluted using 8% DMSO/culture medium to produce a working stock of 250 μM compound. This working stock was then used to perform serial 1:1 dilutions (i.e., 125 μM, 62.5 μM, 31.25 μM, 15.625 μM, 7.8125 μM, and 3.90625 μM) using DMSO-free culture medium. Twenty (20) μL of each of these dilutions was then added to the cells (2×10^4 cells in 80 μL culture medium per 96-well) to obtain the final test compound concentrations (i.e., 25 μM, 12.5 μM, 6.25 μM, 3.125 μM, 1.5625 μM, and 0.78125 μM).
as §1

UConn = assay: Cell proliferation inhibition, ALCL line UConn; assay type: cell-based; settings: Table 2, cell line; read-out: IC50 ALCL (ALK) Uconn
From the text: as §1

H929 = assay: Cell line IC50, MM (IGF1R) H929; assay type: cell-based; settings: Homo sapiens, NCI-H929; Table 2, cell line
WI38 = assay: Cell line IC50, control WI38; assay type: cell-based; settings: Homo sapiens, WI-38; Table 2, cell line
[1] = Plasma Protein Binding (Human), equilibrium dialysis; assay type: in vitro ADME; settings: 1.0E−05 M; for % Protein Bound, Mean: equilibrium dialysis; for % Protein Bound, 1st/2nd: individual data
[2] = Table 2, read-out: Enzymatic IGF1R IC50
[3] = Table 2, read-out: Enzymatic ALK IC50

Structure (SMILES)	IC50 (IGF1R; Table 1, read-out: IGF1R IC50) [nM]	IC50 (IRK) [nM]	IC50 (TRKA) [nM]	IC50 (ALK; Table 1, read-out: ALK IC50) [nM]	IC50 (IGF1R; [2]) [nM]	IC50 (JB6) [nM]	IC50 (Karpas299) [nM]	IC50 (UConn) [nM]	IC50 (H929) [nM]	IC50 (WI38) [nM]	IC50 (ALK; [3]) [nM]	% Protein Bound, Mean [1] [%]	% Protein Bound, 1st/2nd [1]
Cc1c(F)cccc1C[C@H](C)Nc1cc[nH]c(=O)c1-c1nc2cc3c(cc2[nH]1)C(=O)N(CCN1CCCC1)C3	250 to 1000	100 to 250	< 10	10 to 100									
C[C@@H](Cc1cc(F)ccc1Br)Nc1cc[nH]c(=O)c1-c1nc2cc3c(cc2[nH]1)CN(CCN1CCCC1)C3=O [drawing 359]					250 to 1000	10 to 100	10 to 100	100 to 250	250 to 1000	> 1000	10 to 100		
C[C@@H]1CCCN1CCN1Cc2cc3[nH]c(-c4c(N[C@@H](C)Cc5cc(F)cc(F)c5F)cc[nH]c4=O)nc3cc2C1=O [drawing 353]					> 1000	< 10	< 10	10 to 100	250 to 1000	> 1000	< 10		
C[C@@H](Cc1cc(F)cc(F)c1F)Nc1cc[nH]c(=O)c1-c1nc2cc3c(cc2[nH]1)CN(CCN1CCCC1)C3=O [drawing 358]					250 to 1000	10 to 100	10 to 100	10 to 100	250 to 1000	> 1000	10 to 100		
Cc1ccc(F)cc1C[C@H](C)Nc1cc[nH]c(=O)c1-c1nc2cc3c(cc2[nH]1)CN(CCN(C)C)C3=O [drawing 357]					100 to 250	10 to 100	10 to 100	10 to 100	250 to 1000	> 1000	< 10		
Cc1ccc(F)cc1C[C@H](C)Nc1cc[nH]c(=O)c1-c1nc2cc3c(cc2[nH]1)CN(CCN1CCC[C@H]1C)C3=O [drawing 354]					> 1000	10 to 100	10 to 100	10 to 100	250 to 1000	> 1000	10 to 100		
Cc1cccc(C)c1C[C@H](C)Nc1cc[nH]c(=O)c1-c1nc2cc3c(cc2[nH]1)C(=O)N(CCN1CCCC1)C3	> 1000	> 1000	< 10	10 to 100									
Cc1ccc(F)cc1C[C@H](C)Nc1cc[nH]c(=O)c1-c1nc2cc3c(cc2[nH]1)CN(CCN(C)C)C3=O [drawing 316]	100 to 250	100 to 250	< 10	< 10									
O=C1c2cc3nc(-c4c(NC[C@@H](O)c5cccc(Cl)c5)cc[nH]c4=O)[nH]c3cc2C(=O)N1CCN1CCCC1	10 to 100	100 to 250	10 to 100	10 to 100									
C[C@@H](Cc1cc(F)cc(F)c1F)Nc1cc[nH]c(=O)c1-c1nc2cc3c(cc2[nH]1)CN(CCN(C)C)C3=O [drawing 356]					100 to 250	10 to 100	10 to 100	10 to 100	250 to 1000	> 1000	< 10		
C[C@@H](Cc1c(F)c(F)cc(F)c1F)Nc1cc[nH]c(=O)c1-c1nc2cc3c(cc2[nH]1)CN(CCN1CCCC1)C3=O [drawing 352]					> 1000	< 10	< 10	10 to 100	250 to 1000	> 1000	< 10		
Cc1ccc(F)cc1C[C@H](C)Nc1cc[nH]c(=O)c1-c1nc2cc3c(cc2[nH]1)C(=O)N(CCN1CCCC1)C3 [drawing 303]	100 to 250	100 to 250	< 10	< 10									
Cc1ccc(F)cc1C[C@H](C)Nc1cc[nH]c(=O)c1-c1nc2cc3c(cc2[nH]1)C(=O)N(CCN1CCCC1)C3 [drawing 350]					100 to 250	< 10	< 10	10 to 100	250 to 1000	> 1000	< 10		
O=C1NC(=O)c2cc3[nH]c(-c4c(NC[C@@H](O)c5cccc(Cl)c5)cc[nH]c4=O)nc3cc21	250 to 1000	> 1000	100 to 250	> 1000									
CC(=O)CC(c1ccccc1)c1c(O)c2ccccc2oc1=O (centres unmarked) [Warfarin]												99.2	99.2%
CNCCN1Cc2cc3[nH]c(-c4c(N[C@@H](C)Cc5cc(F)ccc5C)cc[nH]c4=O)nc3cc2C1=O [drawing 355]					10 to 100	< 10	10 to 100	10 to 100	250 to 1000	> 1000	< 10		
CCCC(=O)Nc1ccc(OCC(O)CNC(C)C)c(C(C)=O)c1 (centres unmarked) [Acebutolol]												19.2	21.4% and 16.9%
Cc1ccc(F)cc1C[C@H](C)Nc1cc[nH]c(=O)c1-c1nc2c(C)c3c(cc2[nH]1)CN(CCN1CCCC1)C3=O [drawing 351]					100 to 250	< 10	< 10	10 to 100	250 to 1000	> 1000	< 10		

Reference: patent US9249147B2, “Tyrosine kinase inhibitors” (CHEMBRIDGE CORPORATION, priority 2008, dated 2016)
